These results are taken from patent US11813306B2, “Cyclic tetramer compounds as proprotein convertase subtilisin/kexin type 9 (PCSK9) inhibitors for the treatment of metabolic disorders” (NOVARTIS AG, priority 2018, dated 2023).

By IC50 is commonly meant the midpoint of a concentration-inhibition curve. Read a low IC50 as higher potency.

The test deals with human PCSK9 (Homo sapiens, UniProt Q8NBP7). Nature of the test: PCSK9 ligand binding assay (TR-FRET): interference with binding of human PCSK9 to human LDLR. The conditions noted are these: for IC50: Human PCSK9 Alexa Fluor 647 / Human LDLR extracellular domain-Europium Kryptate; for Max % inhibition: efficacy (Amax), 100% = 1 uM unlabeled human PCSK9, 0% = DMSO. The gist of the method:
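Read-out was TR-FRET ratio (665 nm over 615 nm, 330 nm excitation) between Alexa Fluor 647-human PCSK9 (16 nM added) and Europium Kryptate-human LDLR ectodomain (4 nM added). Compound and PCSK9 were mixed 30 min before LDLR, then incubated 2 h. Inhibition was normalised to DMSO and unlabelled-PCSK9 controls, giving IC50 and Amax.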
Background: Time-resolved FRET reads energy transfer from a long-lived donor to a nearby acceptor.

Chain of human PCSK9 (Q8NBP7 153-692): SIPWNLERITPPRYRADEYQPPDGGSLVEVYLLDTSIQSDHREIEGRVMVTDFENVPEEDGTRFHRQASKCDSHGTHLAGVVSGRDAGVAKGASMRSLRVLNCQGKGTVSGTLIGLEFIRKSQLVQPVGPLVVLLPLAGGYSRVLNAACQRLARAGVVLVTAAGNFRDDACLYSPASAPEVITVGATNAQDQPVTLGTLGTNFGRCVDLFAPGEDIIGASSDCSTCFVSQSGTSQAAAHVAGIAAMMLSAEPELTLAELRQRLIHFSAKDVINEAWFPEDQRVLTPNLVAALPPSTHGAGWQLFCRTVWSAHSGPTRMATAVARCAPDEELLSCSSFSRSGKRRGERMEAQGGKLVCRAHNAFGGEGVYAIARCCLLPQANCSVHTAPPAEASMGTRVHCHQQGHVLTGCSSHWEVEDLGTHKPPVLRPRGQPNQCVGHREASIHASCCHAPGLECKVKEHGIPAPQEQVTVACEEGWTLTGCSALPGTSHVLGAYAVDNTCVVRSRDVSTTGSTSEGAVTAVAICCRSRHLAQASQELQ
Chain of human PCSK9 (Q8NBP7 31-152 partner limits assumed): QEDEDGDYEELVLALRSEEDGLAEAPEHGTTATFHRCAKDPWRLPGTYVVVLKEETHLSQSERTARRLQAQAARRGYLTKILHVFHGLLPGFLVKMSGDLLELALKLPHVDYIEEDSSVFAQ

On to `COC[C@@H]1NC(=O)[C@H](C)N(Cc2c(F)cc(Cl)cc2Oc2ccc(-n3cnc(CN4CCCC4)c3C)cc2)C(=O)C[C@@H](Cc2ccccc2)C(=O)N2CCC[C@@](Cc3ccc(Cl)cc3)(C2)NC1=O` [Compound 39, (3R, 7S, 10S, 13R)-3-benzyl-6-(4-chloro-2-fluoro-6-(4-(5-methyl-4-(pyrrolidin-1-ylmethyl)-1H-imidazol-1-yl)phenoxy)benzyl)-13-(4-chlorobenzyl)-10-(methoxymethyl)-7-methyl-1,6,9,12-tetraazabicyclo[11.3.1]heptadecane-2,5,8,11-tetraone], for which the IC50 is 0.383 nM and the Max % inhibition worked out at 113.2%.
For `C/C=C/C[C@@H]1CC(=O)N(Cc2ccc(Cl)cc2Oc2ccc(-c3cnc(CN(C)C)n3C)cc2)[C@@H](C)C(=O)N[C@@H](CO)C(=O)N[C@@]2(Cc3ccc(Cl)cc3)CCCN(C2)C1=O` [Compound 40, (3R,7S,10S,13R)-3-((E)-but-2-en-1-yl)-6-(4-Chloro-2-(4-(2-((dimethylamino)methyl)-1-methyl-1H-imidazol-5-yl)phenoxy)benzyl)-13-(4-chlorobenzyl)-10-(hydroxymethyl)-7-methyl-1,6,9,12-tetraazabicyclo[11.3.1]heptadecane-2,5,8,11-tetraone], in that order: 0.6 nM and 107.8%.
For `Cc1cccc(C[C@@H]2CC(=O)N(Cc3ccc(Cl)cc3Oc3ccc(-c4cnc(CN(C)C)n4C)cc3)[C@@H](C)C(=O)N[C@@H](CO)C(=O)N[C@@]3(Cc4ccc(Cl)cc4)CCCN(C3)C2=O)n1` [Compound 41, (3R, 7S, 10S, 13R)-6-(4-chloro-2-(4-(2-((dimethylamino)methyl)-1-methyl-1H-imidazol-5-yl)phenoxy)benzyl)-13-(4-chlorobenzyl)-10-(hydroxymethyl)-7-methyl-3-((6-methylpyridin-2-yl)methyl)-1,6,9,12-tetraazabicyclo[11.3.1]heptadecane-2,5,8,11-tetraone], in that order: 0.556 nM and 105.9%.
For `C[C@H]1C(=O)N[C@@H](CO)C(=O)N[C@@]2(Cc3ccc(Cl)cc3)CCCN(C2)C(=O)[C@H](CC2CC2)CC(=O)N1Cc1ccc(Cl)cc1Oc1ccc(-c2cnc(CN(C)C)n2C)cc1` [Compound 42, (3R, 7S, 10S, 13R)-6-(4-chloro-2-(4-(2-((dimethylamino)methyl)-1-methyl-1H-imidazol-5-yl)phenoxy)benzyl)-13-(4-chlorobenzyl)-3-(cyclopropylmethyl)-10-(hydroxymethyl)-7-methyl-1,6,9,12-tetraazabicyclo[11.3.1]heptadecone-2,5,8,11-tetraone], in that order: 0.596 nM and 108.3%.
Turning to `C[C@H]1C(=O)N[C@@H](CO)C(=O)N[C@@]2(Cc3ccc(Cl)cc3)CCCN(C2)C(=O)[C@H](Cc2ccccc2)CC(=O)N1Cc1ccc(Cl)cc1Oc1ccc(-c2cnc(CN(C)C)n2C)c(F)c1` [Compound 43, (3R, 7S, 10S, 13R)-3-benzyl-6-(4-chloro-2-(4-(2-((dimethylamino)methyl)-1-methyl-1H-imidazol-5-yl)-3-fluorophenoxy)benzyl)-13-(4-chlorobenzyl)-10-(hydroxymethyl)-7-methyl-1,6,9,12-tetraazabicyclo[11.3.1]heptadecane-2,5,8,11-tetraone], the half-maximal inhibitory concentration (IC50) is 0.405 nM and the Max % inhibition was 110.0%.
For `COC[C@@H]1NC(=O)[C@H](C)N(Cc2ccc(Cl)cc2Oc2ccc(-c3cnc(CN(C)C)n3C)cc2)C(=O)C[C@@H](Cc2cccc(=O)n2C)C(=O)N2CCC[C@@](Cc3ccc(Cl)cc3)(C2)NC1=O` [Compound 44], in that order: 1.18 nM and 105.2%.
